Laboratory results reported in ChEMBL document CHEMBL3603792, “The discovery of oxazolones-grafted spirooxindoles via three-component diversity oriented synthesis and their preliminary biological evaluation” (Bioorg Med Chem Lett, 2015).
The source made the active and inactive calls. The rule behind the calls is not given here.

Legend:
SK-OV-3 = assay: Cytotoxicity against human SKOV3 cells assessed as inhibition of cell growth at 10 ug/ml incubated for 48 hrs by MTT assay; assay type: functional, cell-based
MCF7 [1] = assay: Cytotoxicity against human MCF7 cells assessed as inhibition of cell growth at 10 ug/ml incubated for 48 hrs by MTT assay; assay type: functional, cell-based
PANC-1 = assay: Cytotoxicity against human PANC1 cells assessed as inhibition of cell growth at 10 ug/ml incubated for 48 hrs by MTT assay; assay type: functional, cell-based
HepG2 [2] = assay: Cytotoxicity against human HepG2 cells assessed as inhibition of cell growth at 10 ug/ml incubated for 48 hrs by MTT assay; assay type: functional, cell-based
A-375 = assay: Cytotoxicity against human A375 cells assessed as inhibition of cell growth at 10 ug/ml incubated for 48 hrs by MTT assay; assay type: functional, cell-based
HeLa [3] = assay: Cytotoxicity against human HeLa cells assessed as inhibition of cell growth at 10 ug/ml incubated for 48 hrs by MTT assay; assay type: functional, cell-based
K562 = assay: Cytotoxicity against human K562 cells assessed as inhibition of cell growth at 10 ug/ml incubated for 48 hrs by MTT assay; assay type: functional, cell-based
A549 = assay: Cytotoxicity against human A549 cells assessed as inhibition of cell growth at 10 ug/ml incubated for 48 hrs by MTT assay; assay type: functional, cell-based
cells [4] = assay type: functional, cell-based; settings: Homo sapiens, Huh-7, 48 h
Description: Cytotoxicity against human HuH7 cells assessed as inhibition of cell growth incubated for 48 hrs by MTT assay

MDA-MB-231 = assay: cells; assay type: functional, cell-based; settings: Homo sapiens, MDA-MB-231, 48 h
Description: Cytotoxicity against human MDA-MB-231 cells assessed as inhibition of cell growth incubated for 48 hrs by MTT assay

MCF7 [5] = assay: cells; assay type: functional, cell-based; settings: Homo sapiens, MCF7, 48 h
Description: Cytotoxicity against human MCF7 cells assessed as inhibition of cell growth incubated for 48 hrs by MTT assay

MDA-MB-468 = assay: cells; assay type: functional, cell-based; settings: Homo sapiens, MDA-MB-468, 48 h
Description: Cytotoxicity against human MDA-MB-468 cells assessed as inhibition of cell growth incubated for 48 hrs by MTT assay

cells [6] = assay type: functional, cell-based; settings: Homo sapiens, HCCC9810, 48 h
Description: Cytotoxicity against human HCCC9810 cells assessed as inhibition of cell growth incubated for 48 hrs by MTT assay

HepG2 [7] = assay: cells; assay type: functional, cell-based; settings: Homo sapiens, HepG2, 48 h
Description: Cytotoxicity against human HepG2 cells assessed as inhibition of cell growth incubated for 48 hrs by MTT assay

MCF7 [8] = assay: Induction of apoptosis in human MCF7 cells at 50 uM incubated for 24 hrs by Hoechst 33342 staining; assay type: functional, cell-based
HeLa [9] = assay: Induction of apoptosis in human HeLa cells incubated for 24 hrs by Annexin V-FITC/PI staining based flow cytometry (reference value: 3.37%); assay type: functional
HeLa [10] = assay: Induction of apoptosis in human HeLa cells incubated for 12 hrs by Annexin V-FITC/PI staining based flow cytometry (reference value: 3.37%); assay type: functional
MCF7 [11] = assay: Induction of apoptosis in human MCF7 cells assessed as increase in PARP cleavage incubated for 24 hrs by Western blotting method; assay type: functional, cell-based

Row | Structure (SMILES) | growth inhibition (GI) (SK-OV-3) | growth inhibition (GI) (MCF7 [1]) | growth inhibition (GI) (PANC-1) | growth inhibition (GI) (HepG2 [2]) | growth inhibition (GI) (A-375) | growth inhibition (GI) (HeLa [3]) | growth inhibition (GI) (K562) | growth inhibition (GI) (A549) | IC50 (cells [4]) [µM] | IC50 (MDA-MB-231) [µM] | IC50 (MCF7 [5]) [µM] | IC50 (MDA-MB-468) [µM] | IC50 (cells [6]) [µM] | IC50 (HepG2 [7]) [µM] | Activity (MCF7 [8]) | Activity (HeLa [9]) [%] | Activity (HeLa [10]) [%] | Activity (MCF7 [11])
1 | CN1C[C@@H](c2ccccc2)[C@@]2(N=C(c3ccccc3)OC2=O)[C@@]12C(=O)Nc1ccccc12 | Active | Active | Active | Active | Active | Active | Active | Active |  |  |  |  |  |  |  |  |  | 
2 | O=C1OC(c2ccccc2)=N[C@@]12[C@H](c1ccccc1)[C@H]1CCCN1[C@]21C(=O)Nc2ccccc21 | Active | Active | Active | Active | Active | Active | Active | Active |  |  |  |  |  |  |  |  |  | 
3 | O=C1OC(c2ccccc2)=N[C@@]12[C@H](c1ccccc1)[C@H]1CCCN1[C@]21C(=O)N(Cc2ccccc2)c2ccccc21 | Active | Active | Active | Active | Active | Active | Active | Active |  |  |  |  |  |  |  |  |  | 
4 | CN1C[C@@H](c2ccc(Cl)c(Cl)c2)[C@@]2(N=C(c3ccccc3)OC2=O)[C@@]12C(=O)N(Cc1ccccc1)c1ccccc12 | Active | Active | Active | Active | Active | Active | Active | Active |  |  |  |  |  |  |  |  |  | 
5 | CN1C[C@@H](c2ccccc2)[C@@]2(N=C(c3ccccc3)OC2=O)[C@@]12C(=O)N(Cc1ccccc1)c1ccccc12 | Active | Active | Active | Active | Active | Active | Active | Active |  |  |  |  |  |  |  |  |  | 
6 | O=C1OC(c2ccccc2)=N[C@@]12[C@H](c1ccccc1)[C@H]1CSCN1[C@]21C(=O)Nc2ccccc21 | Active | Active | Active | Active | Active | Active | Active | Active |  |  |  |  |  |  |  |  |  | 
7 | CN1C(=O)[C@@]2(c3ccccc31)N(C)C[C@@H](c1cccc(Cl)c1)[C@@]21N=C(c2ccccc2)OC1=O | Active | Active | Active | Active | Active | Active | Active | Active |  |  |  |  |  |  |  |  |  | 
8 | O=C1OC(c2ccccc2)=N[C@@]12[C@H](c1cccc(Cl)c1)[C@H]1CCCN1[C@]21C(=O)Nc2ccc(Cl)cc21 | Active | Active | Active | Active | Active | Active | Active | Active |  |  |  |  |  |  |  |  |  | 
9 | CN1C[C@@H](c2ccco2)[C@@]2(N=C(c3ccccc3)OC2=O)[C@@]12C(=O)N(Cc1ccccc1)c1ccccc12 | Active | Active | Active | Active | Active | Active | Active | Active |  |  |  |  |  |  |  |  |  | 
10 | O=C1OC(c2ccccc2)=N[C@@]12[C@H](c1cccc(Cl)c1)[C@H]1CCCN1[C@]21C(=O)Nc2ccccc21 | Active | Active | Active | Active | Active | Active | Active | Active |  |  |  |  |  |  |  |  |  | 
11 | O=C1OC(c2ccccc2)=N[C@@]12[C@H](c1ccccc1)CN[C@]21C(=O)Nc2ccccc21 | Active | Active | Active | Active | Active | Active | Active | Active |  |  |  |  |  |  |  |  |  | 
12 | O=C1OC(c2ccccc2)=N[C@@]12[C@H](c1ccc(Cl)c(Cl)c1)[C@H]1CCCN1[C@]21C(=O)Nc2ccccc21 | Active | Active | Active | Active | Active | Active | Active | Active |  |  |  |  |  |  |  |  |  | 
13 | O=C1OC(c2ccccc2)=N[C@@]12[C@H](c1ccc(Cl)c(Cl)c1)[C@H]1CCCN1[C@]21C(=O)N(Cc2ccccc2)c2ccccc21 | Active | Active | Active | Active | Active | Active | Active | Active |  |  |  |  |  |  |  |  |  | 
14 | CNC(=O)c1cc(Oc2ccc(NC(=O)Nc3ccc(Cl)c(C(F)(F)F)c3)cc2)ccn1 [SORAFENIB] |  |  |  |  |  |  |  |  | 7.1 | 5.1 | 5.5 | 4.9 | > 10 | 6.7 |  |  |  | 
15 | O=C1OC(c2ccccc2)=N[C@@]12[C@H](c1ccc(C(F)(F)F)cc1)[C@H]1CCCN1[C@]21C(=O)Nc2ccccc21 | Active | Active | Active | Active | Active | Active | Active | Active | 7.9 | 4.2 | 8.1 | 3.4 | 7.2 | 8.7 | Active | 44.64 | 16.17 | Active
16 | COc1cc([C@@H]2[C@H]3CCCN3[C@]3(C(=O)N(Cc4ccccc4)c4ccccc43)[C@]23N=C(c2ccccc2)OC3=O)cc(OC)c1OC | Active | Active | Active | Active | Active | Active | Active | Active |  |  |  |  |  |  |  |  |  | 
